Numbers after ± are expanded uncertainties.
Experiments:
[1] = 298.15 K; 101.33 kPa; Liquid; Vibrating tube method
[2] = refractive index (Na D-line) (dimensionless); conditions: 298.15 K; 101.33 kPa; Liquid; refractometer
[3] = excess molar enthalpy (molar enthalpy of mixing); xn = mol fraction of the nth substance listed; conditions: 298.15 K, 101 kPa, Liquid, Flow calorimetry

SMILES: CC(Cl)CCl (stereo not given) [1,2-dichloropropane]
- mass density [1]: 1148.95 ± 0.46 kg/m3
- refractive index [2]: 1.43653 ± 0.00023

SMILES: CCCCOCCOC(C)=O [2-butoxyethyl acetate]
- mass density [1]: 935.12 ± 0.3 kg/m3
- refractive index [2]: 1.41183 ± 0.00023

SMILES: CCCCOCCOC(C)=O [2-butoxyethyl acetate] + CC(Cl)CCl
- excess molar enthalpy ([3]; x2 = 0.0659): -0.0225 ± 0.000478 kcal/mol
- excess molar enthalpy ([3]; x2 = 0.0985): -0.0299 ± 0.000502 kcal/mol
- excess molar enthalpy ([3]; x2 = 0.1611): -0.0499 ± 0.000621 kcal/mol
- excess molar enthalpy ([3]; x2 = 0.1911): -0.0545 ± 0.000645 kcal/mol
- excess molar enthalpy ([3]; x2 = 0.2486): -0.0684 ± 0.000741 kcal/mol
- excess molar enthalpy ([3]; x2 = 0.3032): -0.079 ± 0.000813 kcal/mol
- excess molar enthalpy ([3]; x2 = 0.3549): -0.08791 ± 0.00086 kcal/mol
- excess molar enthalpy ([3]; x2 = 0.4041): -0.09455 ± 0.000908 kcal/mol
- excess molar enthalpy ([3]; x2 = 0.4509): -0.09775 ± 0.000932 kcal/mol
- excess molar enthalpy ([3]; x2 = 0.4955): -0.1004 ± 0.000956 kcal/mol
- excess molar enthalpy ([3]; x2 = 0.5585): -0.1023 ± 0.00098 kcal/mol
- excess molar enthalpy ([3]; x2 = 0.5982): -0.1015 ± 0.00098 kcal/mol
- excess molar enthalpy ([3]; x2 = 0.6545): -0.09778 ± 0.000932 kcal/mol
- excess molar enthalpy ([3]; x2 = 0.7073): -0.0914 ± 0.000884 kcal/mol
- excess molar enthalpy ([3]; x2 = 0.7568): -0.0831 ± 0.000837 kcal/mol
- excess molar enthalpy ([3]; x2 = 0.8035): -0.0727 ± 0.000765 kcal/mol
- excess molar enthalpy ([3]; x2 = 0.8615): -0.0569 ± 0.000669 kcal/mol
- excess molar enthalpy ([3]; x2 = 0.9022): -0.0431 ± 0.000574 kcal/mol
- excess molar enthalpy ([3]; x2 = 0.9531): -0.0226 ± 0.000478 kcal/mol

SMILES: CCOCCOC(C)=O [2-ethoxyethyl ethanoate]
- mass density [1]: 967.36 ± 1 kg/m3
- refractive index [2]: 1.40311 ± 0.00042

SMILES: CCOCCOC(C)=O [2-ethoxyethyl ethanoate] + CC(Cl)CCl
- excess molar enthalpy ([3]; x2 = 0.0532): -0.0175 ± 0.000454 kcal/mol
- excess molar enthalpy ([3]; x2 = 0.1067): -0.0303 ± 0.000502 kcal/mol
- excess molar enthalpy ([3]; x2 = 0.1585): -0.0476 ± 0.000598 kcal/mol
- excess molar enthalpy ([3]; x2 = 0.2088): -0.0594 ± 0.000669 kcal/mol
- excess molar enthalpy ([3]; x2 = 0.2575): -0.0693 ± 0.000741 kcal/mol
- excess molar enthalpy ([3]; x2 = 0.3049): -0.0772 ± 0.000789 kcal/mol
- excess molar enthalpy ([3]; x2 = 0.351): -0.08413 ± 0.000837 kcal/mol
- excess molar enthalpy ([3]; x2 = 0.3957): -0.08934 ± 0.000884 kcal/mol
- excess molar enthalpy ([3]; x2 = 0.4605): -0.09474 ± 0.000908 kcal/mol
- excess molar enthalpy ([3]; x2 = 0.5022): -0.09634 ± 0.000932 kcal/mol
- excess molar enthalpy ([3]; x2 = 0.5428): -0.09677 ± 0.000932 kcal/mol
- excess molar enthalpy ([3]; x2 = 0.6017): -0.09524 ± 0.000932 kcal/mol
- excess molar enthalpy ([3]; x2 = 0.6583): -0.09261 ± 0.000908 kcal/mol
- excess molar enthalpy ([3]; x2 = 0.6949): -0.08788 ± 0.00086 kcal/mol
- excess molar enthalpy ([3]; x2 = 0.748): -0.0794 ± 0.000813 kcal/mol
- excess molar enthalpy ([3]; x2 = 0.7991): -0.0688 ± 0.000741 kcal/mol
- excess molar enthalpy ([3]; x2 = 0.8485): -0.0565 ± 0.000669 kcal/mol
- excess molar enthalpy ([3]; x2 = 0.896): -0.0419 ± 0.000574 kcal/mol
- excess molar enthalpy ([3]; x2 = 0.9569): -0.0198 ± 0.000454 kcal/mol

SMILES: COCCOC(C)=O [2-methoxyethyl ethanoate]
- mass density [1]: 999.76 ± 0.3 kg/m3
- refractive index [2]: 1.39988 ± 0.00023

SMILES: COCCOC(C)=O [2-methoxyethyl ethanoate] + CC(Cl)CCl
- excess molar enthalpy ([3]; x2 = 0.0464): -0.0141 ± 0.00043 kcal/mol
- excess molar enthalpy ([3]; x2 = 0.0936): -0.0253 ± 0.000478 kcal/mol
- excess molar enthalpy ([3]; x2 = 0.1401): -0.0365 ± 0.00055 kcal/mol
- excess molar enthalpy ([3]; x2 = 0.2084): -0.0512 ± 0.000621 kcal/mol
- excess molar enthalpy ([3]; x2 = 0.253): -0.06 ± 0.000693 kcal/mol
- excess molar enthalpy ([3]; x2 = 0.2969): -0.0674 ± 0.000717 kcal/mol
- excess molar enthalpy ([3]; x2 = 0.3402): -0.0748 ± 0.000765 kcal/mol
- excess molar enthalpy ([3]; x2 = 0.4038): -0.08196 ± 0.000813 kcal/mol
- excess molar enthalpy ([3]; x2 = 0.4454): -0.08535 ± 0.000837 kcal/mol
- excess molar enthalpy ([3]; x2 = 0.5066): -0.08855 ± 0.00086 kcal/mol
- excess molar enthalpy ([3]; x2 = 0.5467): -0.08953 ± 0.000884 kcal/mol
- excess molar enthalpy ([3]; x2 = 0.6056): -0.08855 ± 0.00086 kcal/mol
- excess molar enthalpy ([3]; x2 = 0.6442): -0.0864 ± 0.00086 kcal/mol
- excess molar enthalpy ([3]; x2 = 0.701): -0.0811 ± 0.000813 kcal/mol
- excess molar enthalpy ([3]; x2 = 0.7566): -0.0746 ± 0.000765 kcal/mol
- excess molar enthalpy ([3]; x2 = 0.811): -0.0636 ± 0.000693 kcal/mol
- excess molar enthalpy ([3]; x2 = 0.8466): -0.0549 ± 0.000645 kcal/mol
- excess molar enthalpy ([3]; x2 = 0.8991): -0.0402 ± 0.000574 kcal/mol
- excess molar enthalpy ([3]; x2 = 0.9505): -0.0217 ± 0.000454 kcal/mol
